Measurements from US20230295157A1, “3-(1H-IMIDAZOL-2-YL)-2,3,8,8A-TETRAHYDROINDOLIZIN-5(1H)-ONE DERIVATIVES USEFUL AS FACTOR XIA INHIBITORS” (JANSSEN PHARMACEUTICA NV, priority 2020, published 2023).

Experiments:
human plasma kallikrein = human plasma kallikrein (Homo sapiens (Human), UniProt P03952); test: Kallikrein inhibition assay (FLINT) utilizing a quenched AMC peptide substrate; type: biochemical; conditions: 30 min preincubation, kinetic reads over 30 min, Z-Gly-Pro-Arg-AMC substrate 50 μM; read-out: Kallikrein Kin Inh IC50
Sequence of human plasma kallikrein (P03952 391-638): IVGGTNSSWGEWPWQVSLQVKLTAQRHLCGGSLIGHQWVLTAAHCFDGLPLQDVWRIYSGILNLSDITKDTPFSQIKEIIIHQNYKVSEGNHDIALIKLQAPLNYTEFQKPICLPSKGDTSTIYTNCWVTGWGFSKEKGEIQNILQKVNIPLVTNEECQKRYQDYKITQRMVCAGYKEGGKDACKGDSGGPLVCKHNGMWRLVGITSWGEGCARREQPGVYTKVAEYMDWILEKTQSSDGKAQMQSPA
Sequence of human plasma kallikrein (P03952 20-390 partner): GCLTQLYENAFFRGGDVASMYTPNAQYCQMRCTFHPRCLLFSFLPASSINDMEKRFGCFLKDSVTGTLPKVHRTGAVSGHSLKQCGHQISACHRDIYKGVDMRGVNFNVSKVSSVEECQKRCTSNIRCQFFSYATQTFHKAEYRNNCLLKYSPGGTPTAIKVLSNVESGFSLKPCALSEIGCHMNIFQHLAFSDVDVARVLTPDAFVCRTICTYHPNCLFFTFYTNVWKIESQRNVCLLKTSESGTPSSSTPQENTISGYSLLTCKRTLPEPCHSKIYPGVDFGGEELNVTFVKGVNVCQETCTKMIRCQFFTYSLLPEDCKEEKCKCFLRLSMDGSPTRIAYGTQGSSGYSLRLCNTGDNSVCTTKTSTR
Outline: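 Fluorogenic Z-Gly-Pro-Arg-AMC cleavage (50 μM substrate, 2 nM kallikrein, Tris pH 7.5, CaCl2, BSA, CHAPS, 2% DMSO) read kinetically at 340/440 nm for 30 min after 30-min compound pre-incubation. Compounds in 11-point 3-fold series from 1 μM; percent inhibition fitted to four-parameter equation for IC50.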

Factor XIa = Factor XIa (Homo sapiens (Human), UniProt P03951); test: Factor XIa inhibition assay (FLINT) utilizing a fluorophore-quencher pair peptide substrate; type: biochemical; conditions: 30 min preincubation, kinetic reads over 30 min, 5Fam-KLTRAETV-K5Tamra substrate 15 μM; read-out: FXIa Kin Inh IC50
Sequence of Factor XIa (P03951 388-625): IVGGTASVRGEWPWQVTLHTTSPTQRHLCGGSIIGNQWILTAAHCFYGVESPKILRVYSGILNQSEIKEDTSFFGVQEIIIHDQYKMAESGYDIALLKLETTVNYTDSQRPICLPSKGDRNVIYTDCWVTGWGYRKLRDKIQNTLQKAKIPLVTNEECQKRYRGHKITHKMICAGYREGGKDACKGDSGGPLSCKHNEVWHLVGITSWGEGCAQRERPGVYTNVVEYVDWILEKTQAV
Sequence of Factor XIa (P03951 19-387 partner): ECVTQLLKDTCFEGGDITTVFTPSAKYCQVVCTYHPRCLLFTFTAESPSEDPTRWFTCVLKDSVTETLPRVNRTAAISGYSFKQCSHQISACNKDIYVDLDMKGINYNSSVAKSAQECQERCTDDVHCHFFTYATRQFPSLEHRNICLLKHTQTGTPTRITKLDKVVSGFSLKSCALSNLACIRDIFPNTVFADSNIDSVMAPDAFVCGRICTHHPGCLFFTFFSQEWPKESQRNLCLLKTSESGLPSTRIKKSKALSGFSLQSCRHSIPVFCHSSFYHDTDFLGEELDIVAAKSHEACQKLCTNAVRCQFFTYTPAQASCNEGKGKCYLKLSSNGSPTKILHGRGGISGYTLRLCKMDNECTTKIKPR
Outline: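 FXIa ([…]) preincubated 30 min with compound (11-point 3-fold dilution, top 100 nM, 2% DMSO), then 15 μM quenched FXI Arg146-based peptide added; Tris pH 7.5, CaCl2, BSA, CHAPS. Fluorescence 485/520 nm read kinetically every 5 min over 30 min at RT; IC50 by 4-parameter fit.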

| SMILES | IC50 (human plasma kallikrein) [nM] | IC50 (Factor XIa) [nM] |
| --- | --- | --- |
| O=C1C=C(c2c(-n3cc(C(F)(F)F)nn3)ccc(Cl)c2F)C[C@H]2CC[C@@H](c3ncc(-c4ccc5[nH]c(=O)ccc5c4)[nH]3)N12 (single isomer, unassigned) [Example 152, 6-[2-[(3S,8a*R)-7-[3-chloro-2-fluoro-6-[4-(trifluoromethyl)triazol-1-yl]phenyl]-5-oxo-2,3,8,8a-tetrahydro-1H-indolizin-3-yl]-1H-imidazol-5-yl]-1H-quinolin-2-one] | 1 | 0.7 |
| O=C1C=C(c2c(-n3cnnn3)ccc(Cl)c2F)C[C@H]2CC[C@@H](c3ncc(-c4ccnc(OC[C@@H]5COCCO5)c4F)[nH]3)N12 (single isomer, unassigned) [Example 157, (3*S,8aR)-3-(5-(2-(((S)-1,4-dioxan-2-yl)methoxy)-3-fluoropyridin-4-yl)-1H-imidazol-2-yl)-7-(3-chloro-2-fluoro-6-(1H-tetrazol-1-yl)phenyl)-2,3,8,8a-tetrahydroindolizin-5(1H)-one] | 6.8 | 2 |
| CC(C)(O)CCc1nccc(-c2cnc([C@@H]3CC[C@@H]4CC(c5c(-n6cnnn6)ccc(Cl)c5F)=CC(=O)N43)[nH]2)c1F (single isomer, unassigned) [Example 158, (3*S,8a*R)-7-(3-chloro-2-fluoro-6-(1H-tetrazol-1-yl)phenyl)-3-(5-(3-fluoro-2-(3-hydroxy-3-methylbutyl)pyridin-4-yl)-1H-imidazol-2-yl)-2,3,8,8a-tetrahydroindolizin-5(1H)-one] | 7.8 | 1 |
| CC(C)(O)CCc1nccc(-c2cnc([C@@H]3CC[C@H]4CC(c5c(-n6cnnn6)ccc(Cl)c5F)=CC(=O)N43)[nH]2)c1F (single isomer, unassigned) [Example 159, (3*S,8a*S)-7-(3-chloro-2-fluoro-6-(1H-tetrazol-1-yl)phenyl)-3-(5-(3-fluoro-2-(3-hydroxy-3-methylbutyl)pyridin-4-yl)-1H-imidazol-2-yl)-2,3,8,8a-tetrahydroindolizin-5(1H)-one] | 22.2 | 5.4 |
| O=C1C=C(c2c(-n3cnnn3)ccc(Cl)c2F)C[C@H]2CC[C@H](c3ncc(-c4ccnc(C5(O)CC5)c4F)[nH]3)N12 (single isomer, unassigned) [Example 162, (3*R,8aR)-7-(3-chloro-2-fluoro-6-(1H-tetrazol-1-yl)phenyl)-3-(5-(3-fluoro-2-(1-hydroxycyclopropyl)pyridin-4-yl)-1H-imidazol-2-yl)-2,3,8,8a-tetrahydroindolizin-5(1H)-one] | 30.6 | 4.2 |
| NC(=O)Cc1nccc(-c2cnc([C@@H]3CC[C@@H]4CC(c5c(-n6cc(C(F)(F)F)nn6)ccc(Cl)c5F)=CC(=O)N43)[nH]2)c1F (single isomer, unassigned) [Example 165, 2-(4-(24(3*S,8a*R)-7-(3-chloro-2-fluoro-6-(4-(trifluoromethyl)-1H-1,2,3-triazol-1-yl)phenyl)-5-oxo-1,2,3,5,8,8a-hexahydroindolizin-3-yl)-1H-imidazol-5-yl)-3-fluoropyridin-2-yl)acetamide] | 123 | 8 |
| C[C@H](CO)Oc1nccc(-c2cnc([C@@H]3CC[C@@H]4CC(c5c(-n6cnnn6)ccc(Cl)c5F)=CC(=O)N43)[nH]2)c1F (single isomer, unassigned) [Example 168, (3S,8a*R)-7-(3-chloro-2-fluoro-6-(1H-tetrazol-1-yl)phenyl)-3-(5-(3-fluoro-2-(((R)-1-hydroxypropan-2-yl)oxy)pyridin-4-yl)-1H-imidazol-2-yl)-2,3,8,8a-tetrahydroindolizin-5(1H)-one] | 4.9 | 0.8 |
| O=C1C=C(c2c(-n3cnnn3)ccc(Cl)c2F)C[C@@H]2CC[C@@H](c3ncc(-c4ccnc([C@H](O)C(F)(F)F)c4F)[nH]3)N12 (single isomer, unassigned) [Example 170] | 31.8 | 17.9 |
| O=C1C=C(c2c(-n3cnnn3)ccc(Cl)c2F)C[C@H]2CC[C@@H](c3ncc(-c4ccnc([C@@H](O)C(F)(F)F)c4F)[nH]3)N12 (single isomer, unassigned) [Example 171, (3*S,8a*R)-7-(3-chloro-2-fluoro-6-(1H-tetrazol-1-yl)phenyl)-3-(5-(3-fluoro-2-((*R)-2,2,2-trifluoro-1-hydroxyethyl)pyridin-4-yl)-1H-imidazol-2-yl)-2,3,8,8a-tetrahydroindolizin-5(1H)-one] | 31.7 | 4.1 |
| O=C1C=C(c2c(-n3cnnn3)ccc(Cl)c2F)C[C@@H]2CC[C@@H](c3nc(Cl)c(-c4ccnc([C@H](O)C(F)(F)F)c4)[nH]3)N12 (single isomer, unassigned) [Example 172, (3*S,8a*S)-7-(3-chloro-2-fluoro-6-(1H-tetrazol-1-yl)phenyl)-3-(4-chloro-5-(2-((*S)-2,2,2-trifluoro-1-hydroxyethyl)pyridin-4-yl)-1H-imidazol-2-yl)-2,3,8,8a-tetrahydroindolizin-5(1H)-one] | 6.1 | 3.6 |
| O=C1C=C(c2c(-n3cnnn3)ccc(Cl)c2F)C[C@H]2CC[C@@H](c3ncc(-c4ccnc(CO)c4F)[nH]3)N12 (single isomer, unassigned) [Example 194, (3*S,8a*R)-7-(3-chloro-2-fluoro-6-(1H-tetrazol-1-yl)phenyl)-3-(4-(3-fluoro-2-(hydroxymethyl-d2)pyridin-4-yl)-1H-imidazol-2-yl)-2,3,8,8a-tetrahydroindolizin-5(1H)-one] | 16.8 | 2.2 |
| O=C(O)c1sc(-c2cnc([C@@H]3CC[C@@H]4CC(c5c(-n6cc(C(F)(F)F)nn6)ccc(Cl)c5F)=CC(=O)N43)[nH]2)cc1F (single isomer, unassigned) [Example 195, 5-(2-((3*S,8aR)-7-(3-chloro-2-fluoro-6-(4-(trifluoromethyl)-1H-1,2,3-triazol-1-yl)phenyl)-5-oxo-1,2,3,5,8,8a-hexahydroindolizin-3-yl)-1H-imidazol-yl)-3-fluorothiophene-2-carboxylic acid] | 22.1 | 0.5 |
| NC(=O)c1cc(-c2cnc([C@@H]3CC[C@@H]4CC(c5c(-n6cnnn6)ccc(Cl)c5F)=CC(=O)N43)[nH]2)ccn1 (single isomer, unassigned) [Example 206] | 9.5 | 10.6 |
| NC(=O)c1ncc(-c2c[nH]c([C@@H]3CC[C@H]4CC(c5c(-n6cc(C(F)(F)F)nn6)ccc(Cl)c5F)=CC(=O)N43)n2)s1 (single isomer, unassigned) [Example 209] | 37.9 | 46.5 |
| NC(=O)c1ncc(-c2c[nH]c([C@@H]3CC[C@@H]4CC(c5c(-n6cc(C(F)(F)F)nn6)ccc(Cl)c5F)=CC(=O)N43)n2)s1 (single isomer, unassigned) [Example 210] | 20.7 | 9.3 |
| NC(=O)c1ccc(-c2cnc([C@@H]3CC[C@@H]4CC(c5c(-n6cc(C(F)(F)F)nn6)ccc(Cl)c5F)=CC(=O)N43)[nH]2)cn1 (single isomer, unassigned) [Example 212] | 90.9 | 20.5 |
| NC(=O)c1ccc(-c2cnc([C@@H]3CC[C@H]4CC(c5c(-n6cc(C(F)(F)F)nn6)ccc(Cl)c5F)=CC(=O)N43)[nH]2)cn1 (single isomer, unassigned) [Example 213] | 197 | 39.4 |
| NC(=O)c1ccc(-c2c[nH]c([C@@H]3CC[C@H]4CC(c5c(-n6cc(C(F)(F)F)nn6)ccc(Cl)c5F)=CC(=O)N43)n2)s1 (single isomer, unassigned) [Example 221] | 7.7 | 2.3 |
| O=C1C=C(c2c(-n3cnnn3)ccc(Cl)c2F)C[C@H]2CC[C@@H](c3ncc(-c4c[nH]nc4Cl)[nH]3)N12 (single isomer, unassigned) [Example 224] | 8 | 0.5 |
| NC(=O)c1ccc(-c2cnc([C@@H]3CC[C@@H]4CC(c5c(-n6cnnn6)ccc(Cl)c5F)=CC(=O)N43)[nH]2)cn1 (single isomer, unassigned) [Example 225] | 16.6 | 2.6 |
| NC(=O)c1ccc(-c2cnc([C@H]3CC[C@@H]4CC(c5c(-n6cnnn6)ccc(Cl)c5F)=CC(=O)N43)[nH]2)cn1 (single isomer, unassigned) [Example 226] | 38.4 | 10.2 |
| O=C1C=C(c2c(-n3cnnn3)ccc(Cl)c2F)C[C@H]2CC[C@@H](c3ncc(-c4ccc(CO)nc4F)[nH]3)N12 (single isomer, unassigned) [Example 235] | 21.1 | 4.7 |
| O=C1C=C(c2c(-n3cnnn3)ccc(Cl)c2F)C[C@H]2CC[C@H](c3ncc(-c4c[nH]nc4C(F)(F)F)[nH]3)N12 (single isomer, unassigned) [Example 239, (3*R,8a*R)-7-(3-Chloro-2-fluoro-6-(1H-tetrazol-1-yl)phenyl)-3-(5-(3-(trifluoromethyl)-1H-pyrazol-4-yl)-1H-imidazol-2-yl)-2,3,8,8a-tetrahydroindolizin-5(1H)-one] | 15.9 | 1.5 |
| O=C1C=C(c2c(-n3cnnn3)ccc(Cl)c2F)C[C@H]2CC[C@@H](c3ncc(-c4c[nH]nc4C(F)(F)F)[nH]3)N12 (single isomer, unassigned) [Example 240, (3*S,8a*R)-7-(3-Chloro-2-fluoro-6-(1H-tetrazol-1-yl)phenyl)-3-(5-(3-(trifluoromethyl)-1H-pyrazol-4-yl)-1H-imidazol-2-yl)-2,3,8,8a-tetrahydroindolizin-5(1H)-one] | 12.9 | 0.6 |
| O=C1Cc2cc(-c3cnc([C@@H]4CC[C@@H]5CC(c6c(-n7cnnn7)ccc(Cl)c6F)=CC(=O)N54)[nH]3)ccc2N1 (single isomer, unassigned) [Example 284] | 3.5 | 1.3 |
